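The compound was tested at five concentrations on cells cultured in 96-well plates, with a 48-hour exposure period. TGI is the concentration that stops growth completely.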
How the values were obtained:
Test in all cases: DTP human tumour cell line panel, 48 h
XF 498 CNS = system: XF 498 CNS
HOP-62 NSCLC = system: HOP-62 NSCLC
U251 CNS = system: U251 CNS
SNB-75 CNS = system: SNB-75 CNS
KM12 colon = system: KM12 colon
EKVX NSCLC = system: EKVX NSCLC
RXF 393 renal = system: RXF 393 renal
SK-MEL-2 melanoma = system: SK-MEL-2 melanoma
OVCAR-3 ovarian = system: OVCAR-3 ovarian
DLD-1 colon = system: DLD-1 colon
TK-10 renal = system: TK-10 renal
UO-31 renal = system: UO-31 renal
CAKI-1 renal = system: CAKI-1 renal
CCRF-CEM leukemia = system: CCRF-CEM leukemia
HOP-92 NSCLC = system: HOP-92 NSCLC
M19-MEL melanoma = system: M19-MEL melanoma
SK-OV-3 ovarian = system: SK-OV-3 ovarian
LXFL 529 NSCLC = system: LXFL 529 NSCLC
OVCAR-8 ovarian = system: OVCAR-8 ovarian
OVCAR-4 ovarian = system: OVCAR-4 ovarian
NCI-H226 lung = system: NCI-H226 lung
LOX IMVI melanoma = system: LOX IMVI melanoma
KM20L2 colon = system: KM20L2 colon
UACC-62 melanoma = system: UACC-62 melanoma
NCI-H460 lung = system: NCI-H460 lung
HCC-2998 colon = system: HCC-2998 colon
DMS 273 small cell lung = system: DMS 273 small cell lung
SN12C renal = system: SN12C renal
COLO 205 colon = system: COLO 205 colon
HCT-15 colon = system: HCT-15 colon
M14 melanoma = system: M14 melanoma
A549 NSCLC = system: A549 NSCLC
DMS 114 small cell lung = system: DMS 114 small cell lung
OVCAR-5 ovarian = system: OVCAR-5 ovarian
786-0 renal = system: 786-0 renal
MALME-3M melanoma = system: MALME-3M melanoma
ACHN renal = system: ACHN renal
UACC-257 melanoma = system: UACC-257 melanoma
NCI-H522 lung = system: NCI-H522 lung
HL-60(TB) leukemia = system: HL-60(TB) leukemia
A498 renal = system: A498 renal
RPMI-8226 leukemia = system: RPMI-8226 leukemia
SK-MEL-28 melanoma = system: SK-MEL-28 melanoma
SF-295 CNS = system: SF-295 CNS
SF-268 CNS = system: SF-268 CNS
SNB-19 CNS = system: SNB-19 CNS
HT29 colon = system: HT29 colon
K-562 leukemia = system: K-562 leukemia
IGROV1 ovarian = system: IGROV1 ovarian
SK-MEL-5 melanoma = system: SK-MEL-5 melanoma
SW-620 colon = system: SW-620 colon
NCI-H23 lung = system: NCI-H23 lung
HCT-116 colon = system: HCT-116 colon
SNB-78 CNS = system: SNB-78 CNS
SR leukemia = system: SR leukemia
SF-539 CNS = system: SF-539 CNS
MOLT-4 leukemia = system: MOLT-4 leukemia
HOP-18 NSCLC = system: HOP-18 NSCLC

Measured: TGI

O=C1CCC2(CC1)SCCCS2
> 100 µM: XF 498 CNS | HOP-62 NSCLC | U251 CNS | SNB-75 CNS | KM12 colon | EKVX NSCLC | RXF 393 renal | SK-MEL-2 melanoma | OVCAR-3 ovarian | DLD-1 colon | TK-10 renal | UO-31 renal | CAKI-1 renal | CCRF-CEM leukemia | HOP-92 NSCLC | M19-MEL melanoma | SK-OV-3 ovarian | LXFL 529 NSCLC | OVCAR-8 ovarian | OVCAR-4 ovarian | NCI-H226 lung | LOX IMVI melanoma | KM20L2 colon | UACC-62 melanoma | NCI-H460 lung | HCC-2998 colon | DMS 273 small cell lung | SN12C renal | COLO 205 colon | HCT-15 colon | M14 melanoma | A549 NSCLC | DMS 114 small cell lung | OVCAR-5 ovarian | 786-0 renal | MALME-3M melanoma | ACHN renal | UACC-257 melanoma | NCI-H522 lung | HL-60(TB) leukemia | A498 renal | RPMI-8226 leukemia | SK-MEL-28 melanoma | SF-295 CNS | SF-268 CNS | SNB-19 CNS | HT29 colon | K-562 leukemia | IGROV1 ovarian | SK-MEL-5 melanoma | SW-620 colon | NCI-H23 lung

O=c1c2ccccc2c2nc3ccccc3nc2n1C1CCCCC1
> 100 µM: U251 CNS | SNB-75 CNS | KM12 colon | EKVX NSCLC | HCT-116 colon | RXF 393 renal | SK-MEL-2 melanoma | OVCAR-3 ovarian | TK-10 renal | UO-31 renal | CAKI-1 renal | M19-MEL melanoma | SK-OV-3 ovarian | LXFL 529 NSCLC | OVCAR-8 ovarian | SNB-78 CNS | OVCAR-4 ovarian | NCI-H226 lung | KM20L2 colon | UACC-62 melanoma | HCC-2998 colon | DMS 273 small cell lung | SN12C renal | COLO 205 colon | HCT-15 colon | A549 NSCLC | DMS 114 small cell lung | OVCAR-5 ovarian | 786-0 renal | MALME-3M melanoma | ACHN renal | SR leukemia | UACC-257 melanoma | NCI-H522 lung | SF-539 CNS | RPMI-8226 leukemia | SK-MEL-28 melanoma | SF-295 CNS | SF-268 CNS | SNB-19 CNS | HT29 colon | K-562 leukemia | IGROV1 ovarian | SK-MEL-5 melanoma | SW-620 colon | MOLT-4 leukemia | NCI-H23 lung

COc1ccc([C@H]2CC(=O)NCCCCN2)cc1
> 100 µM: XF 498 CNS | HOP-62 NSCLC | U251 CNS | SNB-75 CNS | KM12 colon | EKVX NSCLC | HCT-116 colon | RXF 393 renal | SK-MEL-2 melanoma | DLD-1 colon | TK-10 renal | UO-31 renal | CAKI-1 renal | CCRF-CEM leukemia | HOP-92 NSCLC | M19-MEL melanoma | SK-OV-3 ovarian | LXFL 529 NSCLC | OVCAR-8 ovarian | SNB-78 CNS | OVCAR-4 ovarian | NCI-H226 lung | KM20L2 colon | UACC-62 melanoma | NCI-H460 lung | DMS 273 small cell lung | SN12C renal | COLO 205 colon | HCT-15 colon | M14 melanoma | A549 NSCLC | DMS 114 small cell lung | OVCAR-5 ovarian | 786-0 renal | MALME-3M melanoma | ACHN renal | SR leukemia | UACC-257 melanoma | NCI-H522 lung | SF-539 CNS | A498 renal | RPMI-8226 leukemia | SK-MEL-28 melanoma | HOP-18 NSCLC | SF-295 CNS | SF-268 CNS | SNB-19 CNS | HT29 colon | K-562 leukemia | IGROV1 ovarian | SK-MEL-5 melanoma | MOLT-4 leukemia | NCI-H23 lung

COc1ccc(C(c2ccccc2)C(C)C(=O)c2c(C)cc(C)cc2C)cc1 (stereo not drawn)
> 100 µM: M19-MEL melanoma | MALME-3M melanoma | NCI-H522 lung | RPMI-8226 leukemia | HT29 colon | K-562 leukemia

O=C(NO)C12C3C4C1C1C2C3C41C(=O)NO (stereo not drawn)
> 100 µM: HOP-62 NSCLC | U251 CNS | SNB-75 CNS | KM12 colon | EKVX NSCLC | HCT-116 colon | RXF 393 renal | SK-MEL-2 melanoma | OVCAR-3 ovarian | DLD-1 colon | TK-10 renal | UO-31 renal | CAKI-1 renal | CCRF-CEM leukemia | M19-MEL melanoma | SK-OV-3 ovarian | LXFL 529 NSCLC | OVCAR-8 ovarian | SNB-78 CNS | NCI-H226 lung | LOX IMVI melanoma | KM20L2 colon | UACC-62 melanoma | NCI-H460 lung | HCC-2998 colon | DMS 273 small cell lung | SN12C renal | COLO 205 colon | HCT-15 colon | M14 melanoma | A549 NSCLC | DMS 114 small cell lung | OVCAR-5 ovarian | 786-0 renal | MALME-3M melanoma | ACHN renal | NCI-H522 lung | HL-60(TB) leukemia | SF-539 CNS | A498 renal | RPMI-8226 leukemia | SK-MEL-28 melanoma | HOP-18 NSCLC | SF-295 CNS | SF-268 CNS | SNB-19 CNS | HT29 colon | K-562 leukemia | SK-MEL-5 melanoma | MOLT-4 leukemia
